Measurements taken from patent publication US20170190671A1, “BIS(ARYL)CATECHOL DERIVATIVES AS HERBICIDES” (E I DU PONT DE NEMOURS AND COMPANY, priority 2014, published 2017).

How the values were obtained:
Assay type in all cases: in vivo
Conditions in all cases: scale 0 to 100
[1] = system: winter wheat (Triticum aestivum); experiment: Test D preemergence
Description: (§1) Seeds of plant species selected from bluegrass (annual bluegrass, Poa annua), blackgrass (Alopecurus myosuroides), canarygrass (Phalaris minor), chickweed (common chickweed, Stellaria media), cutleaf geranium (Geranium dissectum), galium (catchweed bedstraw, Galium aparine), downy bromegrass (Bromus tectorum), field poppy (Papaver rhoeas), field violet (Viola arvensis), green foxtail (Setaria viridis), deadnettle (henbit deadnettle, Lamium amplexicaule), Italian ryegrass (Lolium multiflorum), kochia (Kochia scoparia), lambsquarters (Chenopodium album), oilseed rape (Brassica napus), pigweed (Amaranthus retroflexus), chamomile (scentless chamomile, Matricaria inodora), Russian thistle (Salsola kali), speedwell (bird's-eye speedwell, Veronica persica), spring barley (Hordeum vulgare), spring wheat (Triticum aestivum), wild buckwheat (Polygonum convolvulus), wild mustard (Sinapis arvensis), wild oat (Avenafatua), wild radish (Raphanus raphanistrum), windgrass (Apera spica-venti), winter barley (Hordeum vulgare), and winter wheat (Triticum aestivum) were planted into a silt loam soil and treated preemergence with test chemicals formulated in a non-phytotoxic solvent mixture which included a surfactant.
(§2) At the same time, these species were planted in pots containing Redi-Earth® planting medium (Scotts Company, 14111 Scottslawn Road, Marysville, Ohio 43041) comprising spaghnum peat moss, vermiculite, wetting agent and starter nutrients and treated with postemergence applications of the test chemicals formulated in the same manner. Plants ranged in height from 2 to 18 cm (1- to 4-leaf stage). Treated plants and controls were maintained in a controlled growth environment for 14 to 21 days after which time all species were compared to controls and visually evaluated. Plant response ratings, summarized in Table D, are based on a scale of 0 to 100 where 0 is no effect and 100 is complete control. A dash (-) response means no test result.

[2] = system: kochia (Kochia scoparia); experiment: Test D preemergence
Description: as §1, §2

[3] = system: spring wheat (Triticum aestivum); experiment: Test D preemergence
Description: as §1, §2

[4] = system: Russian thistle (Salsola kali); experiment: Test D postemergence
Method in brief: (§3)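 Greenhouse herbicide screen. Pre: silt loam, spray at planting. Post: 1–4 leaf, 2–18 cm. Readout: visual % control (0–100) at 14–21 DAT vs controls.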

[5] = system: pigweed (Amaranthus retroflexus); experiment: Test D postemergence
Method in brief: as §3

[6] = system: green foxtail (Setaria viridis); experiment: Test D postemergence
Method in brief: as §3

[7] = system: chamomile (scentless chamomile, Matricaria inodora); experiment: Test D postemergence
Method in brief: as §3

[8] = system: downy bromegrass (Bromus tectorum); experiment: Test D postemergence
Method in brief: as §3

[9] = system: field violet (Viola arvensis); experiment: Test D postemergence
Method in brief: as §3

[10] = system: canarygrass (Phalaris minor); experiment: Test D postemergence
Method in brief: as §3

[11] = system: kochia (Kochia scoparia); experiment: Test D postemergence
Method in brief: as §3

[12] = system: bluegrass (annual bluegrass, Poa annua); experiment: Test D postemergence
Method in brief: as §3

[13] = system: speedwell (bird's-eye speedwell, Veronica persica); experiment: Test D postemergence
Method in brief: as §3

[14] = system: spring wheat (Triticum aestivum); experiment: Test D postemergence
Method in brief: as §3

[15] = system: cutleaf geranium (Geranium dissectum); experiment: Test D postemergence
Method in brief: as §3

[16] = system: spring barley (Hordeum vulgare); experiment: Test D postemergence
Method in brief: as §3

[17] = system: blackgrass (Alopecurus myosuroides); experiment: Test D postemergence
Method in brief: as §3

[18] = system: chickweed (common chickweed, Stellaria media); experiment: Test D postemergence
Method in brief: as §3

[19] = system: Italian ryegrass (Lolium multiflorum); experiment: Test D postemergence
Method in brief: as §3

[20] = system: field poppy (Papaver rhoeas); experiment: Test D postemergence
Method in brief: as §3

[21] = system: oilseed rape (Brassica napus); experiment: Test D postemergence
Method in brief: as §3

In the case of `Fc1cnc(Oc2c(F)cccc2Oc2ncc(Cl)cn2)nc1` [Compound 23], the “Plant response rating, Wheat, Winter” value ([1]; 16 g ai/ha) is reported as 0, the “Plant response rating, Wheat, Winter” value ([1]; 31 g ai/ha) is reported as 5 and the “Plant response rating, Wheat, Winter” value ([1]; 62 g ai/ha) is reported as 10. For the same compound, the “Plant response rating, Wheat, Winter” value ([1]; 125 g ai/ha) was 70, the “Plant response rating, Kochia” value ([2]; 16 g ai/ha) was 15 and the “Plant response rating, Kochia” value ([2]; 31 g ai/ha) was 60. The “Plant response rating, Kochia” value ([2]; 62 g ai/ha) was 60, the “Plant response rating, Kochia” value ([2]; 125 g ai/ha) was 100 and the “Plant response rating, Wheat, Spring” value ([3]; 16 g ai/ha) was 0. For the same compound, the “Plant response rating, Wheat, Spring” value ([3]; 31 g ai/ha) was 5, the “Plant response rating, Wheat, Spring” value ([3]; 62 g ai/ha) was 30 and the “Plant response rating, Wheat, Spring” value ([3]; 125 g ai/ha) was 45. For the same compound, the “Plant response rating, Russian Thistle” value ([4]; 16 g ai/ha) was 0, the “Plant response rating, Russian Thistle” value ([4]; 31 g ai/ha) was 5 and the “Plant response rating, Russian Thistle” value ([4]; 62 g ai/ha) was 10. For the same compound, the “Plant response rating, Russian Thistle” value ([4]; 125 g ai/ha) was 15, the “Plant response rating, Pigweed” value ([5]; 16 g ai/ha) was 55 and the “Plant response rating, Pigweed” value ([5]; 31 g ai/ha) was 60. For the same compound, the “Plant response rating, Pigweed” value ([5]; 62 g ai/ha) was 70, the “Plant response rating, Pigweed” value ([5]; 125 g ai/ha) was 90 and the “Plant response rating, Foxtail, Green” value ([6]; 16 g ai/ha) was 10. For the same compound, the “Plant response rating, Foxtail, Green” value ([6]; 31 g ai/ha) was 10, the “Plant response rating, Foxtail, Green” value ([6]; 62 g ai/ha) was 15 and the “Plant response rating, Foxtail, Green” value ([6]; 125 g ai/ha) was 20. The “Plant response rating, Chamomile” value ([7]; 16 g ai/ha) was 0, the “Plant response rating, Chamomile” value ([7]; 31 g ai/ha) was 0 and the “Plant response rating, Chamomile” value ([7]; 62 g ai/ha) was 0. The “Plant response rating, Chamomile” value ([7]; 125 g ai/ha) was 5, the “Plant response rating, Bromegrass, Downy” value ([8]; 16 g ai/ha) was 5 and the “Plant response rating, Bromegrass, Downy” value ([8]; 31 g ai/ha) was 10. The “Plant response rating, Bromegrass, Downy” value ([8]; 62 g ai/ha) was 20, the “Plant response rating, Bromegrass, Downy” value ([8]; 125 g ai/ha) was 25 and the “Plant response rating, Field Violet” value ([9]; 16 g ai/ha) was 15. The “Plant response rating, Field Violet” value ([9]; 31 g ai/ha) was 60, the “Plant response rating, Field Violet” value ([9]; 62 g ai/ha) was 60 and the “Plant response rating, Field Violet” value ([9]; 125 g ai/ha) was 70. For the same compound, the “Plant response rating, Canarygrass” value ([10]; 16 g ai/ha) was 10, the “Plant response rating, Canarygrass” value ([10]; 31 g ai/ha) was 20 and the “Plant response rating, Canarygrass” value ([10]; 62 g ai/ha) was 25. The “Plant response rating, Canarygrass” value ([10]; 125 g ai/ha) was 55, the “Plant response rating, Kochia” value ([11]; 16 g ai/ha) was 15 and the “Plant response rating, Kochia” value ([11]; 31 g ai/ha) was 20. For the same compound, the “Plant response rating, Kochia” value ([11]; 62 g ai/ha) was 30, the “Plant response rating, Kochia” value ([11]; 125 g ai/ha) was 50 and the “Plant response rating, Bluegrass” value ([12]; 16 g ai/ha) was 5. For the same compound, the “Plant response rating, Bluegrass” value ([12]; 31 g ai/ha) was 10, the “Plant response rating, Bluegrass” value ([12]; 62 g ai/ha) was 15 and the “Plant response rating, Bluegrass” value ([12]; 125 g ai/ha) was 35. For the same compound, the “Plant response rating, Speedwell” value ([13]; 16 g ai/ha) was 40, the “Plant response rating, Speedwell” value ([13]; 31 g ai/ha) was 75 and the “Plant response rating, Speedwell” value ([13]; 62 g ai/ha) was 100. The “Plant response rating, Speedwell” value ([13]; 125 g ai/ha) was 100, the “Plant response rating, Wheat, Spring” value ([14]; 16 g ai/ha) was 0 and the “Plant response rating, Wheat, Spring” value ([14]; 31 g ai/ha) was 5. For the same compound, the “Plant response rating, Wheat, Spring” value ([14]; 62 g ai/ha) was 5, the “Plant response rating, Wheat, Spring” value ([14]; 125 g ai/ha) was 10 and the “Plant response rating, Geranium, Cutleaf” value ([15]; 16 g ai/ha) was 25. The “Plant response rating, Geranium, Cutleaf” value ([15]; 31 g ai/ha) was 45, the “Plant response rating, Geranium, Cutleaf” value ([15]; 62 g ai/ha) was 45 and the “Plant response rating, Geranium, Cutleaf” value ([15]; 125 g ai/ha) was 65. For the same compound, the “Plant response rating, Barley, Spring” value ([16]; 16 g ai/ha) was 0, the “Plant response rating, Barley, Spring” value ([16]; 31 g ai/ha) was 5 and the “Plant response rating, Barley, Spring” value ([16]; 62 g ai/ha) was 5. The “Plant response rating, Barley, Spring” value ([16]; 125 g ai/ha) was 10, the “Plant response rating, Blackgrass” value ([17]; 16 g ai/ha) was 10 and the “Plant response rating, Blackgrass” value ([17]; 31 g ai/ha) was 20. For the same compound, the “Plant response rating, Blackgrass” value ([17]; 62 g ai/ha) was 35, the “Plant response rating, Blackgrass” value ([17]; 125 g ai/ha) was 55 and the “Plant response rating, Chickweed” value ([18]; 16 g ai/ha) was 60. For the same compound, the “Plant response rating, Chickweed” value ([18]; 31 g ai/ha) was 70, the “Plant response rating, Chickweed” value ([18]; 62 g ai/ha) was 70 and the “Plant response rating, Chickweed” value ([18]; 125 g ai/ha) was 80. The “Plant response rating, Ryegrass, Italian” value ([19]; 16 g ai/ha) was 0, the “Plant response rating, Ryegrass, Italian” value ([19]; 31 g ai/ha) was 5 and the “Plant response rating, Ryegrass, Italian” value ([19]; 62 g ai/ha) was 10. The “Plant response rating, Ryegrass, Italian” value ([19]; 125 g ai/ha) was 25, the “Plant response rating, Field Poppy” value ([20]; 16 g ai/ha) was 50 and the “Plant response rating, Field Poppy” value ([20]; 31 g ai/ha) was 70. For the same compound, the “Plant response rating, Field Poppy” value ([20]; 62 g ai/ha) was 75, the “Plant response rating, Field Poppy” value ([20]; 125 g ai/ha) was 80 and the “Plant response rating, Oilseed Rape” value ([21]; 16 g ai/ha) was 30. The “Plant response rating, Oilseed Rape” value ([21]; 31 g ai/ha) was 65, the “Plant response rating, Oilseed Rape” value ([21]; 62 g ai/ha) was 75 and the “Plant response rating, Oilseed Rape” value ([21]; 125 g ai/ha) was 95.
